Data as given in ChEMBL document CHEMBL5370584, “Reprogramming Energy Metabolism with Synthesized PDK Inhibitors Based on Dichloroacetate Derivatives and Targeted Delivery Systems for Enhanced Cancer Therapy” (J Med Chem, 2023).
Activity calls are given as the source filed them. The rule behind the calls is not given here.

Assays:
4T1 [1] = assay: Induction of mitochondrial respiration in mouse 4T1 cells assessed as upregulation of intracellular ATP level at 2 uM incubated for 12 to 24 hrs […]; type: functional, cell-based; settings: time 12-24 hrs
4T1 [2] = assay: Downregulation of c-myc expression in mouse 4T1 cells at 4 uM incubated for 24 hrs; type: functional, cell-based
COS-7 [3] = assay: Effect on PHDC expression in African monkey COS7 cells at high concentration measured after 6 hrs; type: functional, cell-based; settings: Chlorocebus aethiops
4T1 [4] = assay: Induction of apoptosis in mouse 4T1 cells assessed as increase in GSH content at 1 to 2 uM measured after 12 to 24 hrs; type: functional, cell-based; settings: dose 1-2 µM, time 12-24 hrs
[5] = Toxicity in BALB/c mouse assessed as effect on UREA level at 0.15 to 1.5 mg/kg measured upto 16 days; type: organism-based; settings: in vivo, 384 h, dose 0.15-1.5 mg/kg, time < 16 day
4T1 [6] = assay: Downregulation of HIF-1alpha expression in mouse 4T1 cells at 4 uM incubated for 24 hrs; type: functional, cell-based
[7] = Antiproliferative activity against African green monkey COS7 cells assessed as inhibition of cell growth incubated for 24 hrs by MTT assay; type: toxicity, cell-based, Chlorocebus aethiops, COS-7; settings: African green monkey (Chlorocebus aethiops), COS-7 cells
[8] = Toxicity in BALB/c mouse assessed as effect on AST level at 0.15 to 1.5 mg/kg measured upto 16 days; type: organism-based; settings: in vivo, 384 h, dose 0.15-1.5 mg/kg, time < 16 day
4T1 [9] = assay: Induction of mitochondrial membrane potential depolarization in mouse 4T1 cells at high dose measured after 12 hrs by JC-1 staining based analysis; type: functional, cell-based
4T1 [10] = assay: Inhibition of PDK4 expression in mouse 4T1 cells at 4 uM incubated for 24 hrs by Western blot analysis; type: functional, cell-based
COS-7 [11] = assay: Effect on PDK1 expression in African monkey COS7 cells at 12 uM measured after 24 hrs; type: functional, cell-based; settings: Chlorocebus aethiops
4T1 [12] = assay: Antiproliferative activity against PDK knockdown mouse 4T1 cells assessed as reduction in apoptotic percentage at 2 uM incubated for 24 hrs by flow cytometry analysis (reference value: 61.6%); type: functional; set-up: scale not given: the % may be the effect or the level left
4T1 [13] = assay: Upregulation of p53 level in mouse 4T1 cells at 4 uM incubated for 24 hrs; type: functional, cell-based
[14] = Antiproliferative activity against rat PBMC cells assessed as inhibition of cell growth at 5 uM incubated for 24 hrs by MTT assay; type: toxicity, cell-based
[15] = Toxicity in BALB/c mouse assessed as effect on CREA level at 0.15 to 1.5 mg/kg measured upto 16 days; type: organism-based; settings: in vivo, 384 h, dose 0.15-1.5 mg/kg, time < 16 day
COS-7 [16] = assay: Effect on phosphorylation of PDH expression at Serine 293 residues in African monkey COS7 cells at 12 uM measured after 24 hrs; type: functional, cell-based; settings: Chlorocebus aethiops
[17] = Toxicity in BALB/c mouse assessed as effect on liver at 0.15 to 1.5 mg/kg measured upto 16 days; type: organism-based; settings: in vivo, 384 h, dose 0.15-1.5 mg/kg, time < 16 day
4T1 [18] = assay: Antitumor activity against mouse 4T1 cells xenografted in BALB/c mouse model assessed as reduction in hepatosplenomegaly by measuring organ coefficient at 0.15 to 1.5 mg/kg; type: functional, organism-based; settings: dose 0.15-1.5 mg/kg
NB-4 = assay: Antiproliferative activity against human NB4 cells assessed as inhibition of cell growth incubated for 24 hrs by MTT assay; type: functional, cell-based; settings: NB-4, 24 h
4T1 [19] = assay: Induction of ROS production in mouse 4T1 cells by confocal scanning microscopy based analysis; type: functional, cell-based
4T1 [20] = assay: Induction of mitochondrial respiration in mouse 4T1 cells assessed as increase in basal respiration at 2 to 6 uM incubated for 6 hrs by seahorse XF96 flux analyzer; type: functional, cell-based; settings: dose 2-6 µM
4T1 [21] = assay: Inhibition of glycolysis in mouse 4T1 cell lysates assessed as reduction in lactate production at 1 to 4 uM measured after 6 to 12 hrs; type: functional, cell-based; settings: dose 1-4 µM, time 6-12 hrs
[22] = Selectivity ratio of IC50 mouse 4T1 cells to IC50 for African green monkey COS7 cells
[23] = Toxicity in BALB/c mouse assessed as effect on ALP level at 0.15 to 1.5 mg/kg measured upto 16 days; type: organism-based; settings: in vivo, 384 h, dose 0.15-1.5 mg/kg, time < 16 day
HeLa = assay: Antiproliferative activity against human HeLa cells assessed as inhibition of cell growth incubated for 24 hrs by MTT assay; type: functional, cell-based
[24] = target: [Pyruvate dehydrogenase (acetyl-transferring)] kinase isozyme 3, mitochondrial (Mus musculus) (UniProt Q922H2); assay: Inhibition of PDK3 transcription in mouse 4T1 cells at 4 uM incubated for 24 hrs by qPCR analysis; type: cell-based
4T1 [25] = assay: Induction of apoptosis in mouse 4T1 cells assessed as reduction in Bcl-2 expression at 4 uM incubated for 24 hrs; type: functional, cell-based
4T1 [26] = assay: Induction of mitochondrial respiration in mouse 4T1 cells assessed as increase in glucose uptake at 2 to 6 uM incubated for 18 hrs followed by 6 hrs incubation in serum free high glucose medium by glucose uptake assay; type: functional, cell-based; settings: dose 2-6 µM, time 24.0 hrs
4T1 [27] = assay: Induction of apoptosis in mouse 4T1 cells assessed as activation of caspase 9 at 2 uM incubated for 12 to 18 hrs; type: functional, cell-based; settings: time 12-18 hrs
MCF7 = assay: Antiproliferative activity against human MCF7 cells assessed as inhibition of cell growth incubated for 24 hrs by MTT assay; type: functional, cell-based; settings: MCF7, 24 h
4T1 [28] = assay: Induction of apoptosis in mouse 4T1 cells assessed as activation of caspase 3 at 2 uM incubated for 12 to 18 hrs; type: functional, cell-based; settings: time 12-18 hrs
4T1 [29] = assay: Induction of apoptosis in mouse 4T1 cells assessed as increase in Bax expression at 4 uM incubated for 24 hrs; type: functional, cell-based
[30] = target: [Pyruvate dehydrogenase (acetyl-transferring)] kinase isozyme 4, mitochondrial (Mus musculus) (UniProt O70571); assay: Inhibition of PDK4 transcription in mouse 4T1 cells at 4 uM incubated for 24 hrs by qPCR analysis; type: cell-based
4T1 [31] = assay: Induction of mitochondrial respiration in mouse 4T1 cells assessed as increase in oxygen consumption rate at 2 to 6 uM incubated for 6 hrs by seahorse XF96 flux analyzer; type: functional, cell-based; settings: dose 2-6 µM
[32] = Toxicity in BALB/c mouse assessed as effect on body weight at 0.15 to 1.5 mg/kg measured upto 16 days; type: organism-based; settings: in vivo, 384 h, dose 0.15-1.5 mg/kg, time < 16 day
4T1 [33] = assay: Inhibition of PDK1 expression in mouse 4T1 cells at 4 uM incubated for 24 hrs by Western blot analysis; type: functional, cell-based
4T1 [34] = assay: Induction of mitochondrial membrane potential depolarization in mouse 4T1 cells at low dose measured after 12 hrs by JC-1 staining based analysis; type: functional, cell-based
4T1 [35] = assay: Inhibition of glycolysis in mouse 4T1 cell lysates assessed as reduction in extracellular acidification rate at 2 to 6 uM measured after 6 hrs; type: functional, cell-based; settings: dose 2-6 µM
[36] = target: [Pyruvate dehydrogenase (acetyl-transferring)] kinase isozyme 1, mitochondrial (Mus musculus) (UniProt Q8BFP9); assay: Inhibition of PDK1 transcription in mouse 4T1 cells at 4 uM incubated for 24 hrs by qPCR analysis; type: cell-based
4T1 [37] = assay: Antitumor activity against mouse 4T1 cells xenografted in BALB/c mouse model assessed as reduction in inflammatory index in routine blood at 0.15 to 1.5 mg/kg; type: functional, organism-based; settings: dose 0.15-1.5 mg/kg
4T1 [38] = assay: Inhibition of glycolysis in mouse 4T1 cell lysates assessed as reduction in LDH activity at 1 to 2 uM incubated for 12 hrs; type: functional, cell-based; settings: dose 1-2 µM
4T1 [39] = assay: Inhibition of glycolysis in mouse 4T1 cell lysates assessed as reduction in LDHA expression at 4 uM incubated for 24 hrs; type: functional, cell-based

Sequence of [Pyruvate dehydrogenase (acetyl-transferring)] kinase isozyme 3, mitochondrial (Mus musculus) (Q922H2 whole entry): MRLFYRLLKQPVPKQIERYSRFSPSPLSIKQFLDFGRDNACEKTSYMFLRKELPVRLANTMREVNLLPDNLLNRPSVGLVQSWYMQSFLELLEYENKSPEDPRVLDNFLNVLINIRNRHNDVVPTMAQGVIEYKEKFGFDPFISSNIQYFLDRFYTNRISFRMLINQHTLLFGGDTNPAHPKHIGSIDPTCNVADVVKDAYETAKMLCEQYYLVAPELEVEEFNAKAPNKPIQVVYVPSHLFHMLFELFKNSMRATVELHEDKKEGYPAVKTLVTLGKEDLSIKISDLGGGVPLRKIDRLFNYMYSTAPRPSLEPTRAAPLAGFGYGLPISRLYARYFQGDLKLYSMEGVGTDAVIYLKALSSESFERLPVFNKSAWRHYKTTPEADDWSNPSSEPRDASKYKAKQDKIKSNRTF
Sequence of [Pyruvate dehydrogenase (acetyl-transferring)] kinase isozyme 4, mitochondrial (Mus musculus) (O70571 whole entry): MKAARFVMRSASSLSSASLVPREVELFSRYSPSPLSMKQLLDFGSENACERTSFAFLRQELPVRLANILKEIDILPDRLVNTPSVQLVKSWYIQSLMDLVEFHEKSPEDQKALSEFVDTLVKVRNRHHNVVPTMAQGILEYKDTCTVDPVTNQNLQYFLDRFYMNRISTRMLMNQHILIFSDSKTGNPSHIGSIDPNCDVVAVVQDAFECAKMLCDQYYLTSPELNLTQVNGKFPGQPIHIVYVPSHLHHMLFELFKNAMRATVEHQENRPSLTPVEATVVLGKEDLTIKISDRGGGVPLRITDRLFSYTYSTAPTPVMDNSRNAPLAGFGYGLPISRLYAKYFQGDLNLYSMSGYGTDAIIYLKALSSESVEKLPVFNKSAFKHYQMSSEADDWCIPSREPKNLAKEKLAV
Sequence of [Pyruvate dehydrogenase (acetyl-transferring)] kinase isozyme 1, mitochondrial (Mus musculus) (Q8BFP9 whole entry): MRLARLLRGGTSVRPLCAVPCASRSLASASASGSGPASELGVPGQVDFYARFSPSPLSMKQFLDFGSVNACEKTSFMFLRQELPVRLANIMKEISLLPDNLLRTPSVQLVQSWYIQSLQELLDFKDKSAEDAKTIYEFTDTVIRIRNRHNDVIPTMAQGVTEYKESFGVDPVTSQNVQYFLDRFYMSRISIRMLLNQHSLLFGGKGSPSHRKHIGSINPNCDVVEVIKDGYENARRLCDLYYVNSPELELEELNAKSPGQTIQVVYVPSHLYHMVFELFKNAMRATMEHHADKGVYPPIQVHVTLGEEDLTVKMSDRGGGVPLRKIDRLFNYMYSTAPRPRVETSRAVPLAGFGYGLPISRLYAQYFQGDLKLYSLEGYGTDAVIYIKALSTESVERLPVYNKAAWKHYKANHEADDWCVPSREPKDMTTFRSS

Question: For `O=C(CCCCCNC(=O)C(Cl)Cl)Nc1ccc([As]2SCCCS2)cc1`, which Activity (4T1 [1]) is on record?
Answer: Its Activity is “Active”.

Question: And the Activity (4T1 [2])?
Answer: Its Activity is “Active”.

Question: What about the Activity (COS-7 [3]) of the same molecule?
Answer: The Activity was “inactive”.

Question: What about the Activity (4T1 [4]) of the same molecule?
Answer: The Activity was “Active”.

Question: What about the Activity [5] of the same molecule?
Answer: Its Activity is “Non-Toxic”.

Question: And the Activity (4T1 [6])?
Answer: Its Activity is “Active”.

Question: And the IC50 at 24 h [7]?
Answer: Its IC50 at 24 h is 11.2 µM.

Question: And the Activity [8]?
Answer: Its Activity is “Non-Toxic”.

Question: And the Activity (4T1 [9])?
Answer: Its Activity is “Active”.

Question: What about the inhibition (4T1 [10]) of the same molecule?
Answer: Its inhibition is “Active”.

Question: What about the Activity (COS-7 [11]) of the same molecule?
Answer: The Activity was “inactive”.

Question: What about the Activity (4T1 [12]) of the same molecule?
Answer: The Activity was 16.1%.

Question: And the Activity (4T1 [13])?
Answer: The Activity was “Active”.

Question: And the Activity [14]?
Answer: The Activity was “Non-Toxic”.

Question: And the Activity [15]?
Answer: Its Activity is “Non-Toxic”.

Question: And the Activity (COS-7 [16])?
Answer: Its Activity is “inactive”.

Question: What about the Activity [17] of the same molecule?
Answer: The Activity was “Non-Toxic”.

Question: What about the Activity (4T1 [18]) of the same molecule?
Answer: Its Activity is “Active”.

Question: And the IC50 (NB-4)?
Answer: The IC50 was 1.72 µM.

Question: And the Activity (4T1 [19])?
Answer: The Activity was “Active”.

Question: What about the Activity (4T1 [20]) of the same molecule?
Answer: The Activity was “Active”.

Question: What about the inhibition (4T1 [21]) of the same molecule?
Answer: The inhibition was “Active”.

Question: And the “Ratio IC50” value [22]?
Answer: The value was 6.

Question: What about the Activity [23] of the same molecule?
Answer: The Activity was “Non-Toxic”.

Question: And the IC50 (HeLa)?
Answer: The IC50 was 2.5 µM.

Question: What about the inhibition [24] of the same molecule?
Answer: The inhibition was “Active”.

Question: And the Activity (4T1 [25])?
Answer: The Activity was “Active”.

Question: And the Activity (4T1 [26])?
Answer: The Activity was “Active”.

Question: What about the Activity (4T1 [27]) of the same molecule?
Answer: Its Activity is “Active”.

Question: What about the IC50 (MCF7) of the same molecule?
Answer: Its IC50 is 2.5 µM.

Question: And the Activity (4T1 [28])?
Answer: The Activity was “Active”.

Question: What about the Activity (4T1 [29]) of the same molecule?
Answer: Its Activity is “Active”.

Question: What about the inhibition [30] of the same molecule?
Answer: The inhibition was “Active”.

Question: And the Activity (4T1 [31])?
Answer: Its Activity is “Active”.

Question: And the Activity [32]?
Answer: Its Activity is “Non-Toxic”.

Question: And the inhibition (4T1 [33])?
Answer: Its inhibition is “Active”.

Question: And the Activity (4T1 [34])?
Answer: Its Activity is “inactive”.

Question: What about the inhibition (4T1 [35]) of the same molecule?
Answer: The inhibition was “Active”.

Question: What about the inhibition [36] of the same molecule?
Answer: The inhibition was “Active”.

Question: And the Activity (4T1 [37])?
Answer: Its Activity is “Active”.

Question: And the inhibition (4T1 [38])?
Answer: The inhibition was “Active”.

Question: And the inhibition (4T1 [39])?
Answer: The inhibition was “Active”.
